Measured values published in paper PMC4447944 (The Journal of Biological Chemistry, 2015).

Key:
[1] = molecular target: T1, hABL1(pH396P) (Homo sapiens, UniProt P00519, H396P); assay: KINOMEscan; type: binding
T1 construct: purchased DiscoverX (KINOMEscan platform)

[2] = molecular target: T2, hABL1(pT315I) (Homo sapiens, UniProt P00519, T315I); assay: KINOMEscan; type: binding
T2 construct: purchased DiscoverX (KINOMEscan platform)

[3] = molecular target: T3, hABL1(Q252H) (Homo sapiens, UniProt P00519, Q252H); assay: KINOMEscan; type: binding
T3 construct: purchased DiscoverX (KINOMEscan platform)

[4] = molecular target: T4, hACVR2A (Homo sapiens, UniProt P27037); assay: KINOMEscan; type: binding
T4 construct: purchased DiscoverX (KINOMEscan platform)

[5] = molecular target: T5, hACVR2B (Homo sapiens, UniProt Q13705); assay: KINOMEscan; type: binding
T5 construct: purchased DiscoverX (KINOMEscan platform)

[6] = molecular target: T6, hAKT1 (Homo sapiens, UniProt P31749); assay: KINOMEscan; type: binding
T6 construct: purchased DiscoverX

[7] = molecular target: T7, hAKT3 (Homo sapiens, UniProt Q9Y243); assay: KINOMEscan; type: binding
T7 construct: purchased DiscoverX

[8] = molecular target: T8, hAURKB (Homo sapiens, UniProt Q96GD4); assay: KINOMEscan; type: binding
T8 construct: purchased DiscoverX

[9] = molecular target: T9, hBMPR1B (Homo sapiens, UniProt O00238); assay: KINOMEscan; type: binding
T9 construct: purchased DiscoverX

[10] = molecular target: T10, hCAMK2A (Homo sapiens, UniProt Q9UQM7); assay: KINOMEscan; type: binding
T10 construct: purchased DiscoverX

[11] = molecular target: T11, hCAMK2B (Homo sapiens, UniProt Q13554); assay: KINOMEscan; type: binding
T11 construct: purchased DiscoverX

[12] = molecular target: T12, hCSNK1A1 (Homo sapiens, UniProt P48729); assay: KINOMEscan; type: binding
T12 construct: purchased DiscoverX (KINOMEscan platform)

[13] = molecular target: T13, hDAPK2 (Homo sapiens, UniProt Q9UIK4); assay: KINOMEscan; type: binding
T13 construct: purchased DiscoverX (KINOMEscan platform)

[14] = molecular target: T14, hEGFR(G719C) (Homo sapiens, UniProt P00533, G719C); assay: KINOMEscan; type: binding
T14 construct: purchased DiscoverX

[15] = molecular target: hEGFR(L747-T751del,Sins) (Homo sapiens, UniProt P00533, DEL747-751/INS746S); assay: KINOMEscan; type: binding
[16] = molecular target: T15, hEGFR(L858R) (Homo sapiens, UniProt P00533, L858R); assay: KINOMEscan; type: binding
T15 construct: purchased DiscoverX

[17] = molecular target: T16, hERK8 (Homo sapiens, UniProt Q8TD08); assay: KINOMEscan; type: binding
T16 construct: purchased DiscoverX

[18] = molecular target: T17, hERN1 (Homo sapiens, UniProt O75460); assay: KINOMEscan; type: binding
T17 construct: purchased DiscoverX

[19] = molecular target: T18, hFGFR1 (Homo sapiens, UniProt P11362); assay: KINOMEscan; type: binding
T18 construct: purchased DiscoverX

[20] = molecular target: T19, hFGFR3 (Homo sapiens, UniProt P22607); assay: KINOMEscan; type: binding
T19 construct: purchased DiscoverX

[21] = molecular target: T20, hFLT3 (Homo sapiens, UniProt P36888); assay: KINOMEscan; type: binding
T20 construct: purchased DiscoverX

[22] = molecular target: T21, hHIPK4 (Homo sapiens, UniProt Q8NE63); assay: KINOMEscan; type: binding
T21 construct: purchased DiscoverX

[23] = molecular target: T22, hIKK-beta (Homo sapiens, UniProt O14920); assay: KINOMEscan; type: binding
T22 construct: purchased DiscoverX (KINOMEscan panel)

[24] = molecular target: T23, hJNK3 (Homo sapiens, UniProt P53779); assay: KINOMEscan; type: binding
T23 construct: purchased DiscoverX (KINOMEscan panel)

[25] = molecular target: T24, hMAP4K4 (Homo sapiens, UniProt O95819); assay: KINOMEscan; type: binding
T24 construct: purchased DiscoverX (KINOMEscan platform)

[26] = molecular target: T25, hMET (Homo sapiens, UniProt P08581); assay: KINOMEscan; type: binding
T25 construct: purchased DiscoverX

[27] = molecular target: T26, hMKNK1 (Homo sapiens, UniProt Q9BUB5); assay: KINOMEscan; type: binding
T26 construct: purchased DiscoverX

[28] = molecular target: T27, hRET(M918T) (Homo sapiens, UniProt P07949, M918T); assay: KINOMEscan; type: binding
T27 construct: purchased DiscoverX (KINOMEscan platform)

[29] = molecular target: T28, hROCK1 (Homo sapiens, UniProt Q13464); assay: KINOMEscan; type: binding
T28 construct: purchased DiscoverX (KINOMEscan platform)

[30] = molecular target: T29, hRSK2(Kin.Dom.2-C-term) (Homo sapiens, UniProt P51812); assay: KINOMEscan; type: binding
T29 construct: hRSK2(Kin.Dom.2-C-term); purchased DiscoverX (KINOMEscan platform)

[31] = molecular target: T30, hRSK4(Kin.Dom.2-C-term) (Homo sapiens, UniProt Q9UK32); assay: KINOMEscan; type: binding
T30 construct: hRSK4(Kin.Dom.2-C-term); purchased DiscoverX (KINOMEscan platform)

[32] = molecular target: T31, hSIK (Homo sapiens, UniProt P57059); assay: KINOMEscan; type: binding
T31 construct: purchased DiscoverX (KINOMEscan platform)

[33] = molecular target: T32, hTAK1 (Homo sapiens, UniProt O43318); assay: KINOMEscan; type: binding
T32 construct: purchased DiscoverX

[34] = molecular target: T33, hTYRO3 (Homo sapiens, UniProt Q06418); assay: KINOMEscan; type: binding
T33 construct: purchased DiscoverX

[35] = molecular target: T34, hWEE1 (Homo sapiens, UniProt P30291); assay: KINOMEscan; type: binding
T34 construct: purchased DiscoverX

[36] = molecular target: T35, hWNK3 (Homo sapiens, UniProt Q9BYP7); assay: KINOMEscan; type: binding
T35 construct: purchased DiscoverX

[37] = molecular target: T36, CYP2C9 (Homo sapiens, UniProt P11712); assay: Cytochrome p450 inhibition (Eurofins-CEREP); type: in vitro ADME
T36 construct: Eurofins-CEREP

[38] = molecular target: hD1 (Homo sapiens, UniProt P21728); assay: β-arrestin Antagonist (Eurofins-CEREP); details: read-out: % Effect, Inhibition
[39] = molecular target: hH1 (Homo sapiens, UniProt P35367); assay: Ca Mobilization Agonist (Eurofins-CEREP); details: @ 13.3 μM
[40] = molecular target: hFXR (Homo sapiens, UniProt Q96RI1); assay: Nuclear hormone receptor assay (Eurofins-CEREP)

T8 sequence (Q96GD4 whole entry): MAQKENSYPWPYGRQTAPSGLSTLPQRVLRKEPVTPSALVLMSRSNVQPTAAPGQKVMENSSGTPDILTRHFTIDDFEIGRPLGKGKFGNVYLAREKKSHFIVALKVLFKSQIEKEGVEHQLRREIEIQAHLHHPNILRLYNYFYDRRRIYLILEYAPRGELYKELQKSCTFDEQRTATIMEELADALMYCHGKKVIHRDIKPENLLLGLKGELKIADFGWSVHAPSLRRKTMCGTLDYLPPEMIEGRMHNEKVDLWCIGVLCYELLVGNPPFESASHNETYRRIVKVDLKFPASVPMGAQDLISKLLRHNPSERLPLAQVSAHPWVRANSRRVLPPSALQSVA
T11 sequence (Q13554 whole entry): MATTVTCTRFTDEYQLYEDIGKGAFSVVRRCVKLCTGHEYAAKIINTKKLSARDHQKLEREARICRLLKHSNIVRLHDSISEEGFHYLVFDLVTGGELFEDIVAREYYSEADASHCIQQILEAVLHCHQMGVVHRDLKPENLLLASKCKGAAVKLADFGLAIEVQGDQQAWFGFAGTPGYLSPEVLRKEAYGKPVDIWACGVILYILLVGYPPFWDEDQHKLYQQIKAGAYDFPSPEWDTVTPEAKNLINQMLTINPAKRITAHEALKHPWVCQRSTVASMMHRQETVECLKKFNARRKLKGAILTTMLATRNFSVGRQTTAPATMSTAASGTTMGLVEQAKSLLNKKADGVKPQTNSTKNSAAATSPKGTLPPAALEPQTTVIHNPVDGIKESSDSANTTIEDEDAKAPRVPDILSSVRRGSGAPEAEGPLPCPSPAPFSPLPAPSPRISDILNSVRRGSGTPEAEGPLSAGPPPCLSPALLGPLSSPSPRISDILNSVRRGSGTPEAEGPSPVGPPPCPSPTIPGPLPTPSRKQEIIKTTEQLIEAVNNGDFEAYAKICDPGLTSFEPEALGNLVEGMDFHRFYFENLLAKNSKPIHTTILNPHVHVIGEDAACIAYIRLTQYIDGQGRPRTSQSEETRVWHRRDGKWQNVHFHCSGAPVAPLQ
T16 sequence (Q8TD08 whole entry): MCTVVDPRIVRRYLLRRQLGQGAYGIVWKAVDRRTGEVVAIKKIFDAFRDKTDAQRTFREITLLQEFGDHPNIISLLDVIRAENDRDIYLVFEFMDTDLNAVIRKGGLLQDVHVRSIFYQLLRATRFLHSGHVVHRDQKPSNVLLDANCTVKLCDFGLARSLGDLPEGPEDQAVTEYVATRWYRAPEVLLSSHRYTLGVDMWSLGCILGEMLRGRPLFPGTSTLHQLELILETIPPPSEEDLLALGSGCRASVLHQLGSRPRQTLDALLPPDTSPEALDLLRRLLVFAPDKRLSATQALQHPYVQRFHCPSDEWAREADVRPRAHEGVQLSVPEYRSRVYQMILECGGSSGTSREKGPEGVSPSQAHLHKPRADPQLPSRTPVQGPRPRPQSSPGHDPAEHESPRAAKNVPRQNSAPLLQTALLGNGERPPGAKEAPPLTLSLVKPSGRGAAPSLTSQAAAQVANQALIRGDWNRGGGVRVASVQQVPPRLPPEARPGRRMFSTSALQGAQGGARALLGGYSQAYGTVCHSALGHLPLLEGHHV
T7 sequence (Q9Y243 whole entry): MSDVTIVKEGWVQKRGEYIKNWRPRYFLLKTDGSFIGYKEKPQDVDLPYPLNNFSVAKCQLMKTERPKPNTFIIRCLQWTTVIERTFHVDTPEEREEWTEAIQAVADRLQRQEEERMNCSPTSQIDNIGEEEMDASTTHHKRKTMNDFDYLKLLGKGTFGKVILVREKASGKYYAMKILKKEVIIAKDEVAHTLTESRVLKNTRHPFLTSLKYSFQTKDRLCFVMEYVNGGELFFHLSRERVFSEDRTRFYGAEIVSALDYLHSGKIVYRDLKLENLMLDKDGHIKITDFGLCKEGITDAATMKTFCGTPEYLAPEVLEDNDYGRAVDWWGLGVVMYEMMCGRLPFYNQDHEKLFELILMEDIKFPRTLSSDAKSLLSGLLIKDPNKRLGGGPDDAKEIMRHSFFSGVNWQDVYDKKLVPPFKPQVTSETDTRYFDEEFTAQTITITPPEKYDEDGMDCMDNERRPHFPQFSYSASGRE
T14 sequence (P00533 25-1210 G719C): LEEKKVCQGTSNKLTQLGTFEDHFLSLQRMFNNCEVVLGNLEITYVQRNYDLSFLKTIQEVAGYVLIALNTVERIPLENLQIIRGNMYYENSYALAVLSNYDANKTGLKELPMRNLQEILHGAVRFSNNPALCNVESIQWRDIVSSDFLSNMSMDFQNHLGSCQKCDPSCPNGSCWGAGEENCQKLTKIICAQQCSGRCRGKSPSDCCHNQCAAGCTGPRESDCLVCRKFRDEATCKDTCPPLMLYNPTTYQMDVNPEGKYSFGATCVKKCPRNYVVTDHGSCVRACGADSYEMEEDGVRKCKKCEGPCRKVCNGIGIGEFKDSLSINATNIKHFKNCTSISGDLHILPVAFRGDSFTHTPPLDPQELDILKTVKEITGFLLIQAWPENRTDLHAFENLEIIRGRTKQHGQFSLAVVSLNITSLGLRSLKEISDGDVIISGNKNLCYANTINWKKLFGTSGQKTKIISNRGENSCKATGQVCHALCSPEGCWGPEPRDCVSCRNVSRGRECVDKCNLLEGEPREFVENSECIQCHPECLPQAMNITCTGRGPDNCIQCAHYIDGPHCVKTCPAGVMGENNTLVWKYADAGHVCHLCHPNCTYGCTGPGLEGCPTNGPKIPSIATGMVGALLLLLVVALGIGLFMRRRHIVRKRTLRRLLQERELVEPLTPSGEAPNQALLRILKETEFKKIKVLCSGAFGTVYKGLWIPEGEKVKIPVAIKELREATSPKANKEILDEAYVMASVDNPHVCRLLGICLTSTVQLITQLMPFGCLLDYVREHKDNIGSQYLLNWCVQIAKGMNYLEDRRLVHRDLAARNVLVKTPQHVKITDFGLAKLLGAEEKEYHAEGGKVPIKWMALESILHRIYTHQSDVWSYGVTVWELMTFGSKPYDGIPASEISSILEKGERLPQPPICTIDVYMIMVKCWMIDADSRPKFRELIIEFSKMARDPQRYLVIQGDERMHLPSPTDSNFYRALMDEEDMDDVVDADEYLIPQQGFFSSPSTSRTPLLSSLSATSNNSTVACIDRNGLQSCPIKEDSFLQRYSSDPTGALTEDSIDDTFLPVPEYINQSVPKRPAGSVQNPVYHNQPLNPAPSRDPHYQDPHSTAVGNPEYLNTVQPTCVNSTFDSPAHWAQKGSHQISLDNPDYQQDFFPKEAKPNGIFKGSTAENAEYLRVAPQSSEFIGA
T30 sequence (Q9UK32 426-683 limits assumed): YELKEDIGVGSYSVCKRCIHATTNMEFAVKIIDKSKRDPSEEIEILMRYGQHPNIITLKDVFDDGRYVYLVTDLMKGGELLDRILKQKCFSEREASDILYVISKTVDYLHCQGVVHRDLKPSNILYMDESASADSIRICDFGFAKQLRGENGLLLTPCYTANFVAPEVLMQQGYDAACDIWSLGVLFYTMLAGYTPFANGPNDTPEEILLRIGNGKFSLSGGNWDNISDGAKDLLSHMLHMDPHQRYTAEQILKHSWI
T4 sequence (P27037 20-513): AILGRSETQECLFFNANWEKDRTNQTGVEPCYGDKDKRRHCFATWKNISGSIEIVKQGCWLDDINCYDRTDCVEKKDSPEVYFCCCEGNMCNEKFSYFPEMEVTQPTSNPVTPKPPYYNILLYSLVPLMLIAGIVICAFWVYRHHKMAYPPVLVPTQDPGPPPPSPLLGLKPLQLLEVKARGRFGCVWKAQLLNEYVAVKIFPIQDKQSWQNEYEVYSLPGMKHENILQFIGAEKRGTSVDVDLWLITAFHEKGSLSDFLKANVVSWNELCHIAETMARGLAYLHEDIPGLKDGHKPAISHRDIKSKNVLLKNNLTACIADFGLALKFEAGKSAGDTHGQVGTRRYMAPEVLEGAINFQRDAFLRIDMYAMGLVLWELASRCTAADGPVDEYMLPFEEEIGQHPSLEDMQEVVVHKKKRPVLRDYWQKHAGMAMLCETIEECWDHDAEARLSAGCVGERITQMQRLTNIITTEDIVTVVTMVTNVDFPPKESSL
T34 sequence (P30291 whole entry): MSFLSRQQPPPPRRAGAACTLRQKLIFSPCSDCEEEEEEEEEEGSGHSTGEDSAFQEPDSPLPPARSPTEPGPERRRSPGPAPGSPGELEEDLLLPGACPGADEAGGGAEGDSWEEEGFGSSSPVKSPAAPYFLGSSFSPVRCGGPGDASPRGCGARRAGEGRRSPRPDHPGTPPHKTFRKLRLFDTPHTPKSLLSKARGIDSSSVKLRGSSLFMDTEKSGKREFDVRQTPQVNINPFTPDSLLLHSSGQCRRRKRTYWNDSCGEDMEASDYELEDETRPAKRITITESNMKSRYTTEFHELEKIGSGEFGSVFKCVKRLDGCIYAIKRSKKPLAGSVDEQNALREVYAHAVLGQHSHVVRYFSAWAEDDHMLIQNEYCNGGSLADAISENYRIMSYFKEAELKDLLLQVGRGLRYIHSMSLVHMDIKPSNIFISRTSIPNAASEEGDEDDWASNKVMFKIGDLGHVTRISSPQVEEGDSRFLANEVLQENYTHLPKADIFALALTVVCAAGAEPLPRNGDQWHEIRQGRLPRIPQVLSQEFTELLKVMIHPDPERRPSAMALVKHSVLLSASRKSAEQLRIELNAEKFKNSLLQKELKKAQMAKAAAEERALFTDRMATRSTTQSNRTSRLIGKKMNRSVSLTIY
T29 sequence (P51812 422-679 limits assumed): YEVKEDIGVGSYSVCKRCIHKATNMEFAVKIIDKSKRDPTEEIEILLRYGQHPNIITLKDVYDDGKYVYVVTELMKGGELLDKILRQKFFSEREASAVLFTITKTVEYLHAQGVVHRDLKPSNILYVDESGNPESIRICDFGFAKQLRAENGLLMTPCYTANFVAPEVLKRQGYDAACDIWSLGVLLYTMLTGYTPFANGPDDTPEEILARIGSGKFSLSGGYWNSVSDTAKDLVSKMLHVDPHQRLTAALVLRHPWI

In the case of `Cc1cn(CCN2CCN(c3ccccc3-c3cc(C#N)cc(C(=O)NCCCN4CCCC4)c3)CC2)c2ccccc12` [LLY-507, 3-cyano-5-{2-[4-[2-(3-methylindol-1-yl)ethyl]piperazin-1-yl]-phenyl}-N-[(3-pyrrolidin-1-yl)propyl]benzamide], the IC50 [1] is reported as over 20 µM, the IC50 [2] is reported as over 20 µM and the IC50 [3] is reported as over 20 µM. For the same compound, the IC50 [4] was over 20 µM, the IC50 [5] was over 20 µM and the IC50 [6] was over 20 µM. For the same compound, the IC50 [7] was over 20 µM, the IC50 [8] was over 20 µM and the IC50 [9] was over 20 µM. For the same compound, the IC50 [10] was over 20 µM, the IC50 [11] was over 20 µM and the IC50 [12] was over 20 µM. The IC50 [13] was over 20 µM, the IC50 [14] was over 20 µM and the IC50 [15] was over 20 µM. It also gave an IC50 [16] of over 20 µM, an IC50 [17] of over 20 µM and an IC50 [18] of over 20 µM. It also gave an IC50 [19] of over 20 µM, an IC50 [20] of over 20 µM and an IC50 [21] of over 20 µM. For the same compound, the IC50 [22] was over 20 µM, the IC50 [23] was over 20 µM and the IC50 [24] was over 20 µM. It also gave an IC50 [25] of over 20 µM, an IC50 [26] of over 20 µM and an IC50 [27] of over 20 µM. It also gave an IC50 [28] of over 20 µM, an IC50 [29] of over 20 µM and an IC50 [30] of over 20 µM. The IC50 [31] was over 20 µM, the IC50 [32] was over 20 µM and the IC50 [33] was over 20 µM. The IC50 [34] was over 20 µM, the IC50 [35] was over 20 µM and the IC50 [36] was over 20 µM. For the same compound, the “% inhibition @ 10 μM” value [37] was 34.2%, the inhibition at 10 µM [38] was 43.4% and the “% Effect, Stimulation” value [39] was -2.8%. For the same compound, the IC50 [40] was over 10 µM.
